According to US20140299020A1, “WATER-BASED BLACK INK COMPOSITION, INKJET RECORDING METHOD USING SAME, AND COLORED BODY” (NIPPON KAYAKU KABUSHIKI KAISHA, priority 2011, published 2014):

Test: Solubility with respect to water at room temperature
Assay type: physicochemical
Details: lithium salt

solubility	SMILES
≥ 100 mg/mL	Nc1c(N=Nc2ccc3c(O)c(N=Nc4ccc(N=Nc5ccc(S(=O)(=O)O)cc5)cc4S(=O)(=O)O)c(S(=O)(=O)O)cc3c2S(=O)(=O)O)cc(S(=O)(=O)O)c2cc(S(=O)(=O)O)c(N=Nc3ccc([N+](=O)[O-])cc3S(=O)(=O)O)c(O)c12 [Compound 1]
≥ 100 mg/mL	Nc1c(N=Nc2ccc3c(O)c(N=Nc4ccc(N=Nc5ccc(S(=O)(=O)O)cc5)cc4S(=O)(=O)O)c(S(=O)(=O)O)cc3c2S(=O)(=O)O)cc(S(=O)(=O)O)c2cc(S(=O)(=O)O)c(N=Nc3ccc(S(=O)(=O)O)cc3[N+](=O)[O-])c(O)c12 [Compound 3]

SMILES	solubility
Cc1cc(N=Nc2c(S(=O)(=O)O)cc3c(S(=O)(=O)O)c(N=Nc4cc(S(=O)(=O)O)c5cc(S(=O)(=O)O)c(N=Nc6ccc([N+](=O)[O-])cc6S(=O)(=O)O)c(O)c5c4N)ccc3c2O)c(OCCCS(=O)(=O)O)cc1N=Nc1ccc([N+](=O)[O-])cc1S(=O)(=O)O [Compound 16]	≥ 100 mg/mL
